Entries after “also recorded” stand apart in the source; their conditions may differ. Read-outs that look alike come from different tables or passages of the source. Marks after values point to notes of the source that are not given here.
What was measured:
Type in all cases: cell-based, human
[1] = test system: MES-SA uterine sarcoma cells; settings: for IC50: cells counted after 72 h, ± SEM
Procedure: MES-SA cells were treated for 1 h at 37 or 42° C. with 5 μM Tat-ELP-GFLG-DOX (SEQ ID NO: 3); ELP-GFLG-DOX (SEQ ID NO: 3), which lacks the Tat cell penetrating peptide; or Tat-ELP-GFLG (SEQ ID NO: 3), which is not labeled with DOX. After the 1 h treatment, cells were rinsed and fresh media was replaced for 72 h. Cells remaining after 72 h were collected by trypsinization and counted using a Coulter counter. […] Similarly, the control polypeptide which lacks the Tat sequence was not cytotoxic, likely because it cannot efficiently enter the cells.
1.8 Cytotoxicity Assay. Cells were plated and treated for 1 h at 37° C. and 42° C. as described above with Tat-ELP1-GFLG-Dox (SEQ ID NO: 3), Tat-ELP2-GFLG-Dox (SEQ ID NO: 3), or control polypeptides lacking the Tat sequence or unlabeled with Dox. Cells were rinsed and harvested 72 h after treatment by trypsinization, collected by centrifugation, and resuspended in isotonic buffer. Cell number was determined using a Coulter counter and expressed as a percentage of untreated cells.
1.10. Data Fitting and Statistical Analysis. The concentration dependence of the Tt was fit with a logarithmic equation using Microsoft Excel. Dose-response curves were fit using exponential or sigmoid equations as applicable using Microcal Origin in order to determine the 50% inhibitory concentration (IC50). […] The significance of the thermal targeting index was assessed by comparing the normothermia group with the hyperthermia group using a paired Student's t-test in Microsoft Excel. p values of less than 0.05 were considered statistically significant. Polypeptide uptake and caspase activation were analyzed for statistical differences using one-way ANOVA analyses with post-hoc Scheffe's tests for pair-wise comparisons of treatment groups. The statistical significance level was p<0.05.
3.5. Cytotoxicity of ELP-delivered Dox. The growth-inhibitory activity of Tat-ELP-GFLG-Dox (SEQ ID NO: 3) was evaluated in the MES-SA uterine sarcoma cell line. MES-SA cells were treated for 1 h at 37° C. or 42° C. with various concentrations of Tat-ELP-GFLG-Dox (SEQ ID NO: 3); ELP-GFLG-Dox (SEQ ID NO: 3), which lacks the Tat cell penetrating peptide, the Tat-ELP-GFLG (SEQ ID NO: 3) polypeptide without Dox; or free Dox. After the 1 h treatment, the cells were rinsed and fresh media was replaced for 72 h. Cells remaining after 72 h were rinsed, collected by trypsinization, and counted using a Coulter counter. […] The toxicity of the unlabeled Tat-ELP-GFLG (SEQ ID NO: 3) protein was negligible when treated below the Tt.

MES-SA cells [2] = experiment: Caspase activation, FLICA polycaspase assay with flow cytometry; settings: 10 μM, 1 h
Procedure: MES-SA cells were treated for 1 h at 37 or 42° C. with Tat-ELP-GFLG-DOX (SEQ ID NO: 3), the control construct lacking the Tat sequence, with free DOX. Cells were harvested after the 1 h exposure, and caspase activity was detected using a fluorescent caspase inhibitor (Immunochemistry Technologies, Bloomington, Minn.) and flow cytometry.
Caspase activation was measured using a carboxyfluorescein FLICA polycaspase assay (Immunochemistry Technologies, Bloomington, Minn.). Cells were treated as described above with the indicated protein, collected by trypsinization, and stained for 2 h at 37° C. with the carboxyfluorescein FLICA reagent as described by the manufacturer. Cells were rinsed twice and analyzed for caspase activation by flow cytometry using a Cytomics FC 500 flow cytometer (n=5,000 cells). Forward versus side scatter gating was used to eliminate cell debris from the analysis, and a histogram of fluorescein fluorescence (channel FL1) was bimodal with peaks for caspase positive and caspase negative cells. The percentage of caspase positive cells was determined from the histograms and expressed as an average of 3 experiments.
MES-SA cells were treated as described above, cells were harvested after the 1 h exposure, and caspase activity was detected using a fluorescent caspase inhibitor and flow cytometric analysis. […] Cell numbers under each peak were quantified and averaged to determine the percentage of the cell population in which caspases were activated under each treatment condition. […] In fact, the percent of caspase positive cells was enhanced almost 4 fold when cells were treated with Tat-ELP1-GFLG-Dox (SEQ ID NO: 3) at 42° C. versus 37° C. (p<0.05).

MES-SA/Dx5 cells [3] = experiment: Proliferation of doxorubicin-resistant cells, continuous 72 h exposure
Procedure: To test the ability of the ELP doxorubicin carrier to overcome this drug resistance, a uterine cancer cell line (MES-SA) and its doxorubicin resistant subline MES-SA/Dx5 were treated with either free doxorubicin or ELP-delivered doxorubicin.
A major problem with classical chemotherapy is the development of drug resistance. The most common mechanism of resistance is expression of a drug efflux pump (MDR1) by the cancer cells in response to drug treatment. This pump can remove drugs from the cells, and, though induced by one drug, it can act on a wide variety of others, resulting in a phenomenon called multi-drug resistance. […] The present inventors used this cell line to determine whether ELP delivered DOX can overcome MDR1-mediated resistance to doxorubicin. MES-SA/Dx5 cells were incubated with Tat-ELP-GFLG-DOX (SEQ ID NO: 3) continuously for 72 h.

MES-SA cells [4] = experiment: DIC microscopy of apoptotic cell morphology; settings: 10 μM, 1 h, temperature not distinguished
Procedure: 1.9. Apoptosis Assays. For differential interference contrast (DIC) microscopy, MES-SA cells were plated onto 22 mm^2 coverslips at 50% confluence. Cells were treated as described above with the indicated protein, rinsed with PBS, and mounted onto glass slides. The unfixed cells were imaged immediately using a Zeiss Axiovert 200 DIC microscope with a 40× oil immersion objective and a Coolsnap HQ camera.
2.6. Induction of Apoptosis. […] This effect was documented by treating MES-SA cells adhered to glass cover slips with each construct and imaging them by DIC microscopy. Cells were treated for 1 h as described above, then immediately mounted on slides and imaged without fixation. […] Untreated cells were spread onto the glass, and morphological features such as nuclei and endocytic vesicles were readily visible. This morphology was not altered by simply exposing the cells to hyperthermia. […] However, such effects were minor and limited to a fraction of the cells. […] All cells examined were rounded with no discernable nucleus and fragmented chromosomes.

MES-SA/Dx5 cells [5] = experiment: Drug efflux by flow cytometry; settings: loaded 5 h with 10 μM
Procedure: For further evidence that Tat-ELP-GFLG-DOX (SEQ ID NO: 3) can bypass the drug efflux pump, flow cytometry was used to analyze drug efflux from cells treated with free DOX or with Tat-ELP-GFLG-DOX (SEQ ID NO: 3). Cells were loaded for 5 h with either 10 μM DOX or Tat-ELP-GFLG-DOX (SEQ ID NO: 3), then the drug was removed and fresh media was replaced. Cells were collected and analyzed for DOX content using flow cytometry. […] The cells with low DOX fluorescence have pumped the drug out. As time passes after removal of the drug, the DOX positive peak gets lower in intensity and becomes a smaller percentage of the population. This illustrates the removal of DOX from theses cells with time after washing the drug out of the media. […] This means that all cells have the same amount of drug in them. This single peak is still evident at all time points after removal of the drug. This means that these cells are unable to pump the ELP delivered DOX out.

MES-SA cells [6] = experiment: Confocal fluorescence microscopy of intracellular localization; settings: 10 μM, after 1 h exposure; listed as free drug
Procedure: 1.7. Laser Scanning Confocal Fluorescence Microscopy. MES-SA cells were plated on 22 mm^2 cover slips at approximately 50% confluence and treated as described above with Tat-ELP-GFLG-Dox (SEQ ID NO: 3). Cells were rinsed with PBS at the indicated times, fixed with paraformaldehyde (PFA, 2% v/v) and visualized using a TCS SP2 laser scanning confocal microscope with a 100× oil immersion objective (Leica, Wetzlar, Germany). PMT voltages were lowered for imaging of cells treated at 42° C. during image acquisition to maximize image resolution and intensity.
3.4. Cellular Distribution. To confirm that Tat-ELP-GFLG-Dox (SEQ ID NO: 3) was internalized and not merely attached to the cell exterior, the cellular distribution of the ELP-delivered drug was examined by confocal fluorescence microscopy. MES-SA cells were treated for 1 h at 37° C. and 42° C. with 10 μM Tat-ELP1-GFLG-Dox (SEQ ID NO: 3). The cells were rinsed and analyzed immediately after treatment and 24 h later using the intrinsic Dox fluorescence. […] Untreated cells had no signal under the imaging settings used, ruling out any contribution to the images from autofluorescence (FIG. 7B, right panel).

COc1cccc2c1C(=O)c1c(O)c3c(c(O)c1C2=O)C[C@@](O)(C(=O)CO)C[C@@H]3O[C@H]1C[C@H](N)[C@H](O)[C@H](C)O1 [Dox, doxorubicin]
Cytotoxicity in words [1]: more cytotoxic than the polymer-delivered drug | IC50 relative to Tat-ELP-GFLG delivered Dox (times lower) [1]: about 150 times | IC50 ([1]; 1 h treatment at 37° C., read-out: IC50 (37° C.)): 130 ± 10 nM | IC50 ([1]; 1 h treatment at 42° C., read-out: IC50 (42° C.)): 58 ± 20 nM | Thermal Targeting Index (IC50 37°/IC50 42°) ([1]; IC50 at 37° C. divided by IC50 at 42° C.): 2.3 † | Enhancement of percent caspase positive cells at 42° C. versus 37° C. (MES-SA cells [2]): not affected by hyperthermia | Caspase activation / apoptosis induction (MES-SA cells [2]; temperature not distinguished): induced apoptosis | Resistance of MES-SA/Dx5 relative to MES-SA cells (MES-SA/Dx5 cells [3]): 100 times | Resistance of MES-SA/Dx5 relative to MES-SA cells (MES-SA/Dx5 cells [3]; continuous 72 h exposure): about 100 fold | Cell morphology (hallmarks of apoptosis) (MES-SA cells [4]): noticeable rounding and membrane blebbing | Drug efflux: Dox fluorescence histogram after removal of the drug (MES-SA/Dx5 cells [5]): two populations | Intracellular localization of Dox (MES-SA cells [6]): exclusively in the cell nucleus; also recorded: localizes entirely in the nucleus

Reference: patent US8252740B2, “Thermally-targeted delivery of medicaments including doxorubicin” (The University of Mississippi Medical Center, priority 2006, dated 2012)
